Results as given in PubChem BioAssay (NCI).
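Assay format: 96-well plates, 48-hour exposure. Abbreviation: GI50, concentration required for 50% inhibition of growth. TGI: total growth inhibition.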

What was measured:
Test in all cases: growth of human tumour cells (NCI), 48 h
A498 renal = tested on: A498 renal
A549 NSCLC = tested on: A549 NSCLC
MDA-MB-231 breast = tested on: MDA-MB-231 breast
MOLT-4 leukemia = tested on: MOLT-4 leukemia
OVCAR-8 ovarian = tested on: OVCAR-8 ovarian
PC-3 prostate = tested on: PC-3 prostate
U251 CNS = tested on: U251 CNS
UO-31 renal = tested on: UO-31 renal
DLD-1 colon = tested on: DLD-1 colon
DMS 273 small cell lung = tested on: DMS 273 small cell lung
KM20L2 colon = tested on: KM20L2 colon
SNB-78 CNS = tested on: SNB-78 CNS

| SMILES | GI50 (A498 renal) | TGI (A498 renal) | GI50 (A549 NSCLC) | TGI (A549 NSCLC) | GI50 (MDA-MB-231 breast) | TGI (MDA-MB-231 breast) | GI50 (MOLT-4 leukemia) | TGI (MOLT-4 leukemia) | GI50 (OVCAR-8 ovarian) | TGI (OVCAR-8 ovarian) | GI50 (PC-3 prostate) | TGI (PC-3 prostate) | GI50 (U251 CNS) | TGI (U251 CNS) | GI50 (UO-31 renal) | TGI (UO-31 renal) | TGI (DLD-1 colon) | TGI (DMS 273 small cell lung) | TGI (KM20L2 colon) | TGI (SNB-78 CNS) |
| --- | --- | --- | --- | --- | --- | --- | --- | --- | --- | --- | --- | --- | --- | --- | --- | --- | --- | --- | --- | --- |
| COc1ccccc1[As]=[As]c1ccccc1OC (configuration not stated) | 0.0622 µM | 0.184 µM | 0.0973 µM | 0.289 µM | 0.0564 µM | 0.182 µM | 0.0382 µM | 0.204 µM | 0.0507 µM | 0.194 µM | 0.0619 µM | 0.195 µM | 0.0145 µM | 0.0311 µM | 0.0923 µM | 0.24 µM |  |  |  |  |
| CCC(=O)N1C/C(=C/c2ccc(Br)cc2)C(=O)/C(=C/c2ccc(Br)cc2)C1 | 1.43 µM | 3.06 µM | 0.745 µM | 10.8 µM | 0.76 µM | 2.36 µM | 1.06 µM | 5.69 µM | 0.499 µM | 2.88 µM | 0.632 µM | 2.29 µM | 0.24 µM | 0.763 µM | 0.607 µM | 1.5 µM |  |  |  |  |
| Cn1cc(C2=C(c3cn(CCCN)c4ccccc34)C(=O)NC2=O)c2ccccc21 | 3.92 µM | 9.18 µM | 5.65 µM | 17.4 µM | 6.49 µM | 16.7 µM | 6.06 µM | 18.5 µM | 5.46 µM | 14.7 µM | 7.63 µM | 24.6 µM | 5.01 µM | 11.5 µM | 5.41 µM | > 18.8 µM |  |  |  |  |
| CCCCNC(=S)OCCC(C)CCCC(C)C (configuration not stated) |  | > 100 µM |  | > 100 µM |  |  |  | > 100 µM |  | > 100 µM |  |  |  | > 100 µM |  | > 100 µM | > 100 µM | > 100 µM | > 100 µM | > 100 µM |
| CC(=O)c1ccccc1NC(=O)C(=O)C(C(=O)c1ccccc1-c1ccccc1)C1OC(=O)c2ccccc21 (configuration not stated) |  | 38.2 µM |  | 80.4 µM |  |  |  | 93 µM |  | 47.9 µM |  |  |  | 30.3 µM |  | 32.8 µM | 48 µM | > 100 µM | 53 µM | > 100 µM |
| Cc1nc2sc3c(N)ncnc3c2c(C)c1C | > 25 µM | > 25 µM | > 25 µM | > 25 µM | > 25 µM | > 25 µM | > 25 µM | > 25 µM | > 25 µM | > 25 µM | > 25 µM | > 25 µM | > 25 µM | > 25 µM | > 25 µM | > 25 µM |  |  |  |  |
| NS(=O)(=O)c1ccc(NC(=O)C2C(=O)C(=O)N(c3ccc(S(N)(=O)=O)cc3)C2=O)cc1 (configuration not stated) |  | > 100 µM |  | > 100 µM |  |  |  | > 100 µM |  | > 100 µM |  |  |  | > 100 µM |  | > 100 µM | > 100 µM | > 100 µM | > 100 µM | > 100 µM |
| O=C1Cc2cc(CCn3cncn3)c(Cl)cc2N1 | 32.5 µM | > 100 µM | 16.5 µM | > 100 µM | 4.66 µM | > 100 µM | > 100 µM | > 100 µM | 69.4 µM | > 100 µM | > 100 µM | > 100 µM | 14.5 µM | > 100 µM | > 100 µM | > 100 µM |  |  |  |  |
| Oc1[nH]c2ccccc2c1/C=c1/ccc2c(c1)N=C(c1ccc(C(F)(F)F)cc1)N=2 | 1.54 µM | 11.2 µM | 4.81 µM | 17.8 µM | 2.04 µM | 14 µM | 1.67 µM | 3.94 µM | 5.94 µM | 20.3 µM | 1.54 µM | 3.75 µM | 2.83 µM | 12.8 µM | 2.48 µM | 13 µM |  |  |  |  |
| CCOC(=O)c1[nH]c2cc(OC)c(OC)cc2c1CN(C)C |  | > 100 µM |  | > 100 µM |  |  |  | > 100 µM |  | > 100 µM |  |  |  | > 100 µM |  | > 100 µM | > 100 µM |  | > 100 µM | > 100 µM |
| COc1ccc2c(O)c(/C=C3\N=Nc4ncccc43)oc2c1C[C@@H]1CCNC[C@H]1F | 1.39 µM | 3.66 µM | 1.31 µM | 3.93 µM | 0.728 µM | 2.77 µM | 0.181 µM | 0.544 µM | 0.277 µM | 1.6 µM | 0.53 µM | 3.62 µM | 0.299 µM | 1.2 µM | 1.61 µM | 5.18 µM |  |  |  |  |
| O=C1C=C2CCCC2C(C(=O)O)(C(=O)O)C1 (configuration not stated) |  | > 100 µM |  | > 100 µM |  |  |  | > 100 µM |  | > 100 µM |  |  |  | > 100 µM |  | > 100 µM | > 100 µM | > 100 µM |  | > 100 µM |
| CCOc1ccc(C(C[N+](=O)[O-])Sc2ccccc2N)cc1 (configuration not stated) | 12.5 µM | 25 µM | 7.82 µM | 23 µM | 2.43 µM | 7.84 µM | 3.73 µM | 16.9 µM | 8.97 µM | 22.6 µM | 4.02 µM | 17.3 µM | 2.96 µM | 10.6 µM | 2.05 µM | 18.2 µM |  |  |  |  |
| CNC(=O)c1c(F)cccc1Nc1nc(Nc2cc3c(cc2OC)CCN3C(=O)CN(C)C)nc2[nH]ccc12 | > 39.6 µM | > 58.7 µM | 1.74 µM | 14.4 µM | 1.9 µM | 4.15 µM | 3.01 µM | > 24.7 µM | 2.79 µM | 8.5 µM | 6.25 µM | 39.9 µM | 2.39 µM | 6.61 µM | 3.85 µM | 12.2 µM |  |  |  |  |
| CCCCCCCCCCNCCSS(=O)(=O)O | 5.48 µM | 19.9 µM | 2.1 µM | 5.27 µM | 1.77 µM | 3.69 µM | 2.06 µM | 4.92 µM | 2.12 µM | 4.68 µM | 1.98 µM | 4.07 µM | 1.99 µM | 4.12 µM | 3.3 µM | 12.9 µM |  |  |  |  |
| CCc1cc2c(O)c(c1)Cc1cc(CC)cc(c1O)Cc1cc(CC)cc(c1O)Cc1cc(CC)cc(c1O)Cc1cc(CC)cc(c1O)Cc1cc(CC)cc(c1O)Cc1cc(CC)cc(c1O)C2 |  |  |  | > 100 µM |  |  |  | > 100 µM |  | > 100 µM |  |  |  | > 100 µM |  | > 100 µM | > 100 µM | > 100 µM | > 100 µM | > 100 µM |
